Patent US20090275496A1, “Effective quantitation of complex peptide mixtures in tissue samples and improved therapeutic methods” (Peptimmune, Inc., priority 2004, published 2009)

Columns and labels:
[1] = target: HLA-DR4 (DRB1*0401) (Homo sapiens, UniProt P01903+P01911, A100K/A169T/F76Y/I96L/K127E/L162R/M171V/N62H/P40V/Q125Y/R42H/S133A/S149N/S66Y/V115G/V209L/W38E); conditions: RA-associated, peptide-specific manner; cited from earlier work
[2] = Serum concentration and bioavailability after administration to mice (ELISA); type: in vivo, CD-1 mice
Description: The blood sample was allowed to clot at room temperature for 15-30 minutes and then the tube was centrifuged at 4° C., 10,000 RPM, for 10 minutes in order to isolate serum. Serum was collected, aliquoted, and stored −80° C. for future testing.
After washing away any unbound conjugate, substrate was added to the wells and incubated, yielding a blue color that turned yellow when stop solution was added. The optical density was measured at 450 nm and a standard curve was generated.

[3] = target: HLA-DR2 (DRB1*1501) (Homo sapiens, UniProt P01903+P01911); conditions: MS-associated, peptide-specific manner; cited from earlier work
[4] = target: HLA-DR1 (DRB1*0101) (Homo sapiens, UniProt P01903+P01911, A100R/D57E/F55L/F60I/F76Y/I96L/L162R/M171V/P40L/Q125E/R42F/V115G/Y59C); conditions: RA-associated, peptide-specific manner; cited from earlier work
[5] = tested on: anti-PI-2301 biotinylated antibody (bAb); assay: Direct competition ELISA, specificity of the anti-PI-2301 biotinylated antibody; type: binding, rabbit
Description: A direct competition ELISA was carried out for the detection and quantitation of PI-2301, an RSP composition. […] Unbound material was washed away and diluted streptavidin-horseradish peroxidase (HRP) conjugate was added to the wells. After washing away any unbound streptavidin conjugate, substrate for HRP catalyzed […] was added to the wells and incubated, yielding a blue color that turns yellow when stop solution is added. The optical density of the color was measured at 450 nm using a microtiter plate reader (for example, Bio-Tek ELx405) and a standard curve was generated.
Specificity is the ability of a method to measure the material of interest to the exclusion of other similar compounds. In this method, specificity is a function of the anti-PI-2301 biotinylated antibody (bAb). If the bAb recognizes, and binds preferentially to, the compound in the serum the bAb will be washed away and the final A450 value will be low. […] Table 5 summarizes the A450 specificity data for 3 compounds spiked into mouse serum.

[6] = tested on: MS; conditions: Bornstein 1987; Johnson 1995; cited from earlier work
[7] = tested on: myeloid cells isolated from femurs of immunologically naive mice; assay: In vitro effects on macrophages: cytokines and chemokines in supernatants; type: cell-based; conditions: culture supernatant
Text: Isolated cells were labeled with magnetic beads and T- and B-cells were depleted from the sample. […] TNFα, IL-6, CXCL1 and CXCL2 as inflammatory markers, and IL-12p70, CXCL13, and CCL22 as regulatory markers.

## glatiramer acetate [Cop-1]
[1]
  binding to purified HLA-DR4 (DRB1*0401): high affinity
[2]; after subcutaneous administration to mice
  time of peak serum concentration: about 15 minutes
[2]; mice, single subcutaneous or intravenous administration
  administered amount available in the plasma (bioavailability): About 8.5%
[3]
  binding to purified HLA-DR2 (DRB1*1501): high affinity
[4]
  binding to purified HLA-DR1 (DRB1*0101): high affinity
[5]
  detection by the antibody for PI-2301: detects Cop-1 efficiently
[6]
  effect on MS in patients: ameliorate MS but does not suppress the disease entirely
[7]
  expression of CXCL1: no significant effect
  expression of CXCL2: no significant effect
  expression of IL-6: no significant effect
  expression of TNFα: no significant effect
